Data reported in US11013780B2, “Methods of treating female infertility” (Myovant Sciences GmbH, priority 2016, dated 2021).
Where no end group is shown, it is not given here.

Tests used:
serum LH, FSH, E2 = assay: Physiological effects in healthy women, follicular phase (Example 11, Part 1); assay type: in vivo, human; details: 9.6 nmol/kg SC
Description: The study population included healthy women, aged 18-35 years, with BMI 18-30 kg/m^2, no medical problems and not taking any medications or hormonal contraception. Three healthy, female subjects were selected and randomized and received a single dose of each of the three study regimens noted below (one regimen per study period). All women were scheduled for three Study D1 Visits (each during the follicular phase of the menstrual cycle). […] The order in which a subject receives one of the three study regimens was determined by a randomization matrix.
The study included a screening visit to collect participants' full medical history and to conduct a general medical examination and blood testing. The three study periods each consisted of three planned study visits per study period (excluding screening and follow-up). Study Day 1 (SD1) Visit of each study period occurred during the follicular phase of the menstrual cycle (days 1-4), and the SD2 and SD3 Visits occurred at 24- and 48-hrs post-dose, respectively (FIG. 14). A follow-up phone call happened 7-10 days post-dose in each study period.
Immediately following dosing, serum LH, FSH, E2 (oestradiol), P (progesterone) and SHBG levels were assessed at 30 minute intervals for up to 14 hours (FIGS. 15A-15C, 16A-16C, 17, 18, 19, 20A, and 20B). These PD variables were also assessed at 24 (Study Day 2) and 48 hours (Study Day 3) post-dose. SHBG changes less rapidly and was measured every 3 hours to reduce blood volume.
Up to 3 mL of blood volume were required for measurement of serum reproductive hormone levels (LH, FSH, E2 and P). Blood samples for serum analysis were collected in plain Vacutainer tubes (Beckton Dickson, Franklin Lakes, N.J., USA), and spun after clotting (˜1 hour at room temperature) for 10 minutes at 3000 rpm. Serum was then stored in a locked freezer at −20° C. until assay of serum reproductive hormone levels.

LH surge = details: trigger in ART protocol with GnRH antagonist and FSH; cited from earlier work
[1] = in vivo; cited from earlier work

kisspeptin-54: previously shown to be clinically effective as a trigger for oocyte maturation in IVF studies (GTSLSPPPESSGSPQQPGLSAPHSRQIPAPQGAVLVQREKDLPNYNWNSFGLRF; ends and bridges not checked; UniProt Q15726 68-121, looked up)
Time of LH peak after administration (serum LH, FSH, E2): 4 to 6 h
Time by which the LH surge resolved (LH surge): ≤ 36 h
half-life [1]: 32 min
